# Reference: patent publication US4191760A, “Dibenzodiazepines” (Abbott Laboratories, priority 1978, dated 1980)
# Columns and labels:
# [1] = tested on: brain homovanillic acid (HVA); experiment: Effect of Drug Compounds on Brain Level of Homovanillic Acid (HVA); format: in vivo, male Long Evans rats; conditions: brain HVA as ratio to control group (control 1.0); 0.15 mmoles/kg intraperitoneally; brains minus cerebella two or three hours later; ratios greater than 1.6 of practical significance
# Method: Effect of Drug Compounds on Brain Level of Homovanillic Acid (HVA)
# In testing for the effectiveness of the present drug compounds on the brain level of homovanillic acid (HVA), the drugs were administered intraperitoneally to male Long Evans rats (Simonsen) usually as aqueous solutions but in certain cases as suspensions in 0.5% methocel in 0.9% saline. The standard testing dose was 0.15 mmoles/kg body weight. The test and control groups consisted of 3-5 and 5 animals, respectively. The analyses were performed on brains (minus cerebella) removed two or three hours later. In the analyses, standard extraction and fluorimetric methods were used.
# [2] = tested on: Methamphetamine induced hyperactivity; experiment: Antagonism of Methamphetamine induced hyperactivity in rats; format: in vivo, Male Long-Evans black hooded rats; conditions: one hour prior to Methamphetamine 1 mg./kg. intraperitoneal; for ED50: Rattus norvegicus, oral, activity counts at one and two hour intervals, read with sign (+)/(-); for potentiation (+) or antagonism (-) of Methamphetamine: oral 5, 20 and 80 mg./kg., sign printed beside the oral ED50
# Method: Effectiveness of Drug Compound on Inhibiting Methamphetamine Antagonism in Rats
# Male Long-Evans black hooded rats, weighing between 100 and 150 grams, were administered the test drugs at oral doses of 5, 20 and 80 mg./kg. one hour prior to the administration of Methamphetamine at an intraperitoneal dose of 1 mg./kg. Three animals were tested at each dose level. […] Antagonism of Methamphetamine induced hyperactivity was recorded as digital counts received from the photocells at one and two hour intervals. Placebo controls received a volume dose of the 0.5 carboxymethylcellulose vehicle. The data were evaluated by a one-way analysis of variance computer program.
# In the results, a (+) indicates a potentiation of Metamphetamine and a (-) is antagonism of Metamphetamine.
structure (smiles),measurement,setting,value
"Clc1ccc2c(c1)N=C(N1CCCN(C3CC3)CC1)c1ccccc1N2 [IX, 8-Chloro-11-(4-cyclopropyl-1-homopiperazinyl)-5H-dibenzo[b,e][1,4]diazepine]",HVA Ratio,[1],0.9
same,ED50,[2],5 mg/kg
same,potentiation (+) or antagonism (-) of Methamphetamine,[2],+
"Clc1ccc2c(c1)N=C(N1CCN(CC3CC3)CC1)c1ccccc1N2 [VI, 8-Chloro-11-(4-cyclopropylmethyl-piperazinyl)-5H-dibenzo[b,e][1,4]diazepine]",HVA Ratio,[1],3.4
same,ED50,[2],80 mg/kg
same,potentiation (+) or antagonism (-) of Methamphetamine,[2],+
"Clc1ccc2c(c1)N=C(N1CCN(C3CC3)CC1)c1ccccc1N2 [VII, 8-Chloro-11-(4-cyclopropyl-1-piperazinyl)-5H-dibenzo[b,e][1,4]diazepine]",HVA Ratio,[1],1.1
same,ED50,[2],60 mg/kg
same,potentiation (+) or antagonism (-) of Methamphetamine,[2],-
"C#CCN1CCN(C2=Nc3cc(Cl)ccc3Nc3ccccc32)CC1 [VIII, 8-Chloro-11-(4-propargyl-1-piperazinyl)-5H-dibenzo[b,e][1,4]diazepine]",HVA Ratio,[1],0.9
same,ED50,[2],5 mg/kg
same,potentiation (+) or antagonism (-) of Methamphetamine,[2],+
"CN1CCCN(C2=Nc3cc(Cl)ccc3Nc3ccccc32)CC1 [X, 8-Chloro-11-(4-methyl-1-homopiperazinyl)-5H-dibenzo[b,e][1,4]diazepine]",HVA Ratio,[1],1.0
same,ED50,[2],9 mg/kg
same,potentiation (+) or antagonism (-) of Methamphetamine,[2],+
"O=CN1CCCN(C2=Nc3cc(Cl)ccc3Nc3ccccc32)CC1 [XI, 8-Chloro-11-(4-formyl-1-homopiperazinyl)-5H-dibenzo[b,e][1,4]diazepine]",HVA Ratio,[1],1.0
same,ED50,[2],80 mg/kg
same,potentiation (+) or antagonism (-) of Methamphetamine,[2],+
"Clc1ccc2c(c1)N=C(N1CCCN(CC3CC3)CC1)c1ccccc1N2 [XII, 8-Chloro-11-(4-cyclopropylmethyl-1-homopiperazine)-5H-dibenzo[b,e][1,4]diazepine]",HVA Ratio,[1],0.9
same,ED50,[2],80 mg/kg
same,potentiation (+) or antagonism (-) of Methamphetamine,[2],+
